Measurements from US7872133B2, “Tricyclic heterocycle compound” (Ono Pharmaceutical Co., Ltd., priority 2003, dated 2011).

Experiments:
MBR = target: T1, MBR (Rattus norvegicus, UniProt P16257); assay: Receptor Binding Experiment (competition with [3H]PK11195); details: rat brain membrane preparation, [3H]PK11195 as MBR selective ligand; Ki by Cheng and Prusoff formula
T1 construct: from tissue; host or cells: whole brain without cerebellum of male Wistar rats, crude membrane preparation
Protocol: The affinity of the compounds in the present invention to MBR was determined using rat brain membrane preparation. In addition, the measurement in the present invention was improved the accuracy of measurement and the sensitivity of measurement for evaluating the compounds in the present invention as follows. After male Wister rats were decapitated to extirpate the whole brain and cerebellums were removed. They were homogenized in ice-cold 50 mmol/L Tris-HCL buffer solution (pH7.4), centrifuged and the obtained pellets were washed. The pellets resuspended and adjusted to about 1 mg/mL were used as rat brain membrane preparations for binding assay. The binding assay were experimented using [^3H]PK11195 as a MBR selective ligand. […]
To determine the amount of total binding in saturation binding experiment, membrane preparations, various concentrations of [^3H]PK11195, final concentration: 0.5 vol % dimethylsulfoxide (DMSO) and 50 mmol/L Tris-HCL buffer solution (pH7.4) were mixed (total volume 200 μL) and were incubated for 1 hour at room temperature. […] The filter was dried and then the radioactivity on the filter was measured by liquid scintillation counter. The data obtained by the binding experiments were Scatchard-analyzed using analysis software, KELL (Ver. 6, BIOSOFT) and the dissociation constant (KD value) was determined. […]

male Wistar rats = assay: Evaluation of Anti-Stress Effects (psychological stress, number of defecation); type: in vivo, rat; details: 10 mg/kg orally 30 minutes before stressor; counted 1 hour later; media treated group average 8.0 feces
Protocol: Psychological stress was loaded to male Wistar rats (Brain Research, 641, 21-28, 1994). Water was stored up to the depth of about 10 cm in a container where the platform was set at the center. A stressor began to load to rats 30 minutes after the vehicle or the compound in the present invention (the compound of Example 17) were orally administered by dosage of 10 mg/kg. The number of defecation was counted 1 hour later (10 per each group). Rats without administration and load of stressor rarely defecated for 1 hour. In contrast, remarkable defecation was admitted in media treated group (average 8.0 feces) loaded by stressor. […] The results clarified that the compounds in the present invention had anti-stress effects.

Structure (SMILES): CC(=O)N1CC2(CC2)c2c([nH]c3ccccc23)C1c1cccc(F)c1 (stereo not drawn) [Example 17, 2-acetyl-1-(3-fluorophenyl)-1,2,3,9-tetrahydrospiro[β-carboline-4,1′-cyclopropane]]
- Ki (MBR): 0.021 µM
- number of defecation (average) (male Wistar rats): 5.4 feces
